In patent US5911993A, “Homeopathic antidiabetic treatment” (priority 1997, dated 1999):

Assays:
diabetes models = assay: blood sugar in mice diabetes models made by injecting Tetraoxymidine; assay type: in vivo, Kumming species mice; conditions: for Blood sugar value, After Use / Reducer rate (-.increment.X%) / Blood sugar value, Before Use: 11 female mice, 0.2 ml/mouse/day; for Blood sugar value, After Use: 6 days after filling the gastric, 0.5 mg/ml powder; for Reducer rate (-.increment.X%) / sequence of reducing blood sugar: 6 days; for Reducer rate (-.increment.X%): 0.5 mg/ml; for Blood sugar value, Before Use: baseline before 0.5 mg/ml powder
Experimental: Then, an animal experiment was conducted using a powder and concentrated powder from the methods of steps of FIGS. 2 through 5. The experimental method is as follows: Separate 88 Kumming species mice randomly to reference group, DSP group, DAS group, DAS 1, DAS 2, and DAS 3 groups, Damicron group, and Youjiangtang group, 11 female mice in each group. Use the mice to make diabetes models by injecting Tetraoxymidine, and compare experiment group with known DSP, Damicron, Youjiangtang (as the standard sample). The dose for every group: 0.5 mg/ml powder, every day 0.2 ml for every mouse, and every day 0.2 ml sodium chloride solution for the reference group only. Take blood to measure blood sugar value 6 days after filling the gastric.

[1] = test system: non-insulin dependent type diabetes; assay: clinical experiments on humans, non-insulin dependent type diabetes; conditions: human, in vivo
Experimental: (§1) Clinical experiments were also conducted on humans from various provinces of China. Five examples of these clinical experiments are as follows (in each experiment each tablet had 20 mg of non-concentrated powder of Echevaria glauca, Sinocrassula berger, Crassulaceae according to the invention): […]

[2] = test system: polychromatic erythrocytes; assay: Mouse marrow micronucleus experiment; assay type: in vivo, Kumming species mouse
Experimental: 2 Mouse marrow micronucleus experiment:
Adopting first class qualified Kumming species mouse (provided by animal house of CMA) whose weight are 24~30 g. Making 3 DAS dose groups as 10, 600, 1200 mg/kg plus a positive (cyclophosphamide 30 mg/kg, inject to stomach 2 times) and a negative reference group, 10 mice for each group, half male and half female. Filling the gastric of each mouse two days continuously, and executing the mouse 6 hours after last filling, taking sternum marrow to make thin section as routine, coloring to red. Counting 1000 polychromatic erythrocytes for each mouse, observing polychromatic erythrocytes which contains micronucleus and calculating the rate of micronucleus cell.

sperm = assay: Mouse sperm terata experiment; assay type: in vivo, Kumming species mouse
Experimental: 3 Mouse sperm terata experiment:
Adopting first class qualified Kumming species mouse (provided by animal house of CMA) whose weight are 27~36 g. Making 3 DAS dose groups as 10, 600, 1200 mg/kg plus a positive (cyclophosphamide 30 mg/kg, inject to stomach 5 days) and a negative reference group. Filling the gastric of each mouse for each of 5 days continuously, and executing the mouse at 35th day after first filling, taking epididymis of both sides, coloring, observing 1000 sperms for each mouse and calculating the ratio of sperm mutation.

[3] = test system: insulin dependent type diabetes; assay: clinical experiment on human, insulin dependent type diabetes; assay type: in vivo, humans; conditions: Example 2, 20 units insulin injected
Experimental: as §1

| Compound | Blood sugar value, After Use (diabetes models) [mg %] | Reducer rate (-.increment.X%) (diabetes models) [%] | Blood sugar value, Before Use (diabetes models) [mg %] | sequence of reducing blood sugar (diabetes models) | further results |
| --- | --- | --- | --- | --- | --- |
| Cc1ccc(S(=O)(=O)NC(=O)NN2CC3CCCC3C2)cc1 (stereo not drawn) [DMC] | 110.50 | 42.55 | 292.35 | DAS2 >DAS3 >DAS1>DSP>YJT>DMC |  |
| COc1ccc(Cl)cc1C(=O)NCCc1ccc(S(=O)(=O)NC(=O)NC2CCCCC2)cc1 [YJT] | 162.28 | 45.28 | 296.38 | DAS2 >DAS3 >DAS1>DSP>YJT>DMC | side effect (a sign of low blood sugar) [1]: became dizzy |
| O=P1(N(CCCl)CCCl)NCCCO1 (stereo not drawn) [cyclophosphamide] |  |  |  |  | Ratio of cell micronucleus ([2]; Positive R.G., 30 mg/kg, 2 times): 45.3%; P vs negative group, micronucleus ([2]; positive reference group): < 0.01; Variant rate (sperm; Positive R.G., 30 mg/kg, 5 days): 61.9%; Variant sperm number (sperm; Positive R.G., 30 mg/kg, 5 days, 10000 sperm observed): 619; P vs negative group, sperm terata (sperm; positive reference group): < 0.01 |
| insulin |  |  |  |  | high or low blood sugar before DAS [3]: became high or low blood sugar occasionally |
